Measured values reported in patent US10265407B2, “Modular nanodevices for smart adaptable vaccines” (Yale University, priority 2007, dated 2019).

Tested on: dendritic cells
Conditions: FCCP incorporated in PLGA-G4 or PLGA-G4-cyclodextrin nanoparticles; FIG. 8
Protocol: The prepared nanoparticles were tested for their ability to disrupt endosomes. Particles co-encapsulating the OVA peptide or GFP associated with the dendrimer were incubated at a concentration of 50 μg/ml with 1E5 BMDCs for 24 hours. Liposomal disruption was assessed both qualitatively via fluorescence microscopy of GFP in the cytosol or quantitatively by amount of OVA antigen presented via MHC Class I. Antigen presentation on Class I MHC takes place via cytosolic transport and OVA peptide/MHC Class I was detected specifically using the antibody 24D16-PE.

SMILES: N#CC(C#N)=NNc1ccc(OC(F)(F)F)cc1 [FCCP, carbonyl cyanide 4-(trifluoromethoxy) phenylhydrazone]
- ability to disrupt endosomes: significantly enhances
